{"source": "patent US8445653B2", "about": "“Freeze-dried preparation of stabilized anthracycline compound” (Dainippon Sumitomo Pharma, priority 2002, dated 2013)", "key": {"[1]": {"settings": "injection sold in Japan dissolved in distilled water for injection or physiological saline solution; cited from earlier work"}, "[2]": {"assay": "Degradation in solution state at controlled solution temperature (Experiment 4)", "format": "physicochemical", "description": "To amrubicin hydrochloride (20 mg potency) in a glass beaker were added L-cysteine hydrochloride monohydrate (3.2 mg) and lactose (50 mg) as an excipient, and the resultant was dissolved in a distilled water for injection. The pH value of the solution was slightly adjusted to about pH 3 with a trace amount of sodium hydroxide and hydrochloric acid, and the resulting solution was put into a temperature-controlled bath at 5° C., 10° C., 15° C. and 25° C. The solution was sampled at the start, 6 hours later, and 24 hours later, and the degradation products therein were measured by HPLC method. The increased amounts of the desaccharified compound (2) and the deaminated compound (3) from those at the start are shown in Table 4."}, "[3]": {"assay": "pH of anthracycline injections when dissolved", "format": "physicochemical", "settings": "lyophilized preparation for clinical administration dissolved in physiological saline solution or 5% glucose injection", "description": "Actually, when the anthracycline anticancer agents being sold in Japan (all of them are injections) are dissolved in a distilled water for injection or a physiological saline solution, the pH values thereof are as follows (Drugs (ethical drugs) in Japan, 24 ed., 2001, edited by Japan Pharmaceutical Information Center).\n(§1) On the contrary, since amrubicin hydrochloride tends to generate a deaminated compound (3) at a pH value of 3.5 or above, it is unstable at a high pH value as shown in the above anthracycline anticancer agents, and when the lyophilized preparation of amrubicin hydrochloride for clinical administration is dissolved in a physiological saline solution or a 5% glucose injection, the pH value thereof is 2.4 to 3.0."}, "[4]": {"assay": "pH dependence of generation of deaminated compound (3) from amrubicin hydrochloride", "format": "physicochemical", "description": "as §1"}, "[5]": {"assay": "Turbidity of injection solution prepared from lyophilized amrubicin preparation", "format": "physicochemical"}, "[6]": {"settings": "solution about pH 3, 5° C., 6 h"}, "[7]": {"settings": "solution about pH 3, 5° C., 24 h"}, "[8]": {"settings": "solution about pH 3, 10° C., 0 h"}, "[9]": {"settings": "solution about pH 3, 10° C., 6 h"}, "[10]": {"settings": "solution about pH 3, 10° C., 24 h"}, "[11]": {"settings": "solution about pH 3, 15° C., 0 h"}, "[12]": {"settings": "solution about pH 3, 15° C., 6 h"}, "[13]": {"settings": "solution about pH 3, 15° C., 24 h"}, "[14]": {"settings": "solution about pH 3, 25° C., 0 h"}, "[15]": {"settings": "solution about pH 3, 25° C., 6 h"}, "[16]": {"settings": "solution about pH 3, 25° C., 24 h"}}, "note": "Where a name gives a salt, the structure may show the parent alone. Read-outs that look alike come from different tables or passages of the source."}
{"compound": "COc1cccc2c1C(=O)c1c(O)c3c(c(O)c1C2=O)C[C@@](O)(C(=O)CO)C[C@@H]3O[C@H]1C[C@H](N)[C@H](O[C@@H]2CCCCO2)[C@H](C)O1.Cl", "note": "[Pirarubucin hydrochloride]", "values": [{"measurement": "pH value", "setting": "[1]", "value": "5.0-6.5"}]}
{"compound": "COc1cccc2c1C(=O)c1c(O)c3c(c(O)c1C2=O)C[C@@](O)(C(=O)CO)C[C@@H]3O[C@H]1C[C@H](N)[C@H](O)[C@H](C)O1", "note": "[Doxorubicin hydrochloride]", "values": [{"measurement": "pH value", "setting": "[1]", "value": "5.0-6.0"}]}
{"compound": "CC(=O)[C@]1(O)Cc2c(O)c3c(c(O)c2[C@@H](O[C@H]2C[C@H](N)[C@H](O)[C@H](C)O2)C1)C(=O)c1ccccc1C3=O", "note": "[Idarubicin hydrochloride]", "values": [{"measurement": "pH value", "setting": "[1]", "value": "5.0-7.0"}]}
{"compound": "CC(=O)[C@]1(N)Cc2c(O)c3c(c(O)c2[C@@H](O[C@H]2C[C@H](O)[C@H](O)CO2)C1)C(=O)c1ccccc1C3=O", "note": "[amrubicin hydrochloride, (7S,9S)-9-Acetyl-9-amino-7-[(2-deoxy-β-D-erythro-pentopyranosyl)-oxy]-7,8,9,10-tetrahydro-6,11-dihydroxy-5,12-naphthacenedione]", "values": [{"measurement": "Increased amount of deaminated compound (3)", "setting": "[2]; solution about pH 3, 5° C., 0 h", "value": 0.00, "unit": "%"}, {"measurement": "Increased amount of deaminated compound (3)", "setting": "[2]; [6]", "value": 0.00, "unit": "%"}, {"measurement": "Increased amount of desaccharified compound (2)", "setting": "[2]; [6]", "value": "−0.01", "unit": "%"}, {"measurement": "Increased amount of deaminated compound (3)", "setting": "[2]; [7]", "value": 0.04, "unit": "%"}, {"measurement": "Increased amount of desaccharified compound (2)", "setting": "[2]; [7]", "value": 0.02, "unit": "%"}, {"measurement": "Increased amount of deaminated compound (3)", "setting": "[2]; [8]", "value": 0.00, "unit": "%"}, {"measurement": "Increased amount of desaccharified compound (2)", "setting": "[2]; [8]", "value": 0.00, "unit": "%"}, {"measurement": "Increased amount of deaminated compound (3)", "setting": "[2]; [9]", "value": 0.00, "unit": "%"}, {"measurement": "Increased amount of desaccharified compound (2)", "setting": "[2]; [9]", "value": 0.01, "unit": "%"}, {"measurement": "Increased amount of deaminated compound (3)", "setting": "[2]; [10]", "value": 0.09, "unit": "%"}, {"measurement": "Increased amount of desaccharified compound (2)", "setting": "[2]; [10]", "value": 0.01, "unit": "%"}, {"measurement": "Increased amount of deaminated compound (3)", "setting": "[2]; [11]", "value": 0.00, "unit": "%"}, {"measurement": "Increased amount of desaccharified compound (2)", "setting": "[2]; [11]", "value": 0.00, "unit": "%"}, {"measurement": "Increased amount of deaminated compound (3)", "setting": "[2]; [12]", "value": 0.07, "unit": "%"}, {"measurement": "Increased amount of desaccharified compound (2)", "setting": "[2]; [12]", "value": 0.00, "unit": "%"}, {"measurement": "Increased amount of deaminated compound (3)", "setting": "[2]; [13]", "value": 0.24, "unit": "%"}, {"measurement": "Increased amount of desaccharified compound (2)", "setting": "[2]; [13]", "value": "−0.01", "unit": "%"}, {"measurement": "Increased amount of deaminated compound (3)", "setting": "[2]; [14]", "value": 0.00, "unit": "%"}, {"measurement": "Increased amount of desaccharified compound (2)", "setting": "[2]; [14]", "value": 0.00, "unit": "%"}, {"measurement": "Increased amount of deaminated compound (3)", "setting": "[2]; [15]", "value": 0.19, "unit": "%"}, {"measurement": "Increased amount of desaccharified compound (2)", "setting": "[2]; [15]", "value": 0.05, "unit": "%"}, {"measurement": "Increased amount of deaminated compound (3)", "setting": "[2]; [16]", "value": 0.60, "unit": "%"}, {"measurement": "Increased amount of desaccharified compound (2)", "setting": "[2]; [16]", "value": 0.18, "unit": "%"}, {"measurement": "Increased amount of desaccharified compound (2)", "setting": "[2]; solution about pH 3 with L-cysteine hydrochloride monohydrate and lactose, 5° C., 0 h", "value": 0.00, "unit": "%"}, {"measurement": "pH value", "setting": "[3]", "value": "2.4 to 3.0"}, {"measurement": "pH value at which deaminated compound (3) tends to be generated", "setting": "[4]", "value": "≥ 3.5"}]}
{"compound": "COc1cccc2c1C(=O)c1c(O)c3c(c(O)c1C2=O)C[C@@](O)(C(C)=O)C[C@@H]3O[C@H]1C[C@H](N)[C@H](O)[C@H](C)O1", "note": "[Daunorubicin hydrochloride]", "values": [{"measurement": "pH value", "setting": "[1]", "value": "5.0-6.5"}]}
{"compound": "CC[C@@]1(O)C[C@H](O[C@H]2C[C@H](N(C)C)[C@H](O[C@H]3C[C@H](O)[C@H](O[C@H]4CCC(=O)[C@H](C)O4)[C@H](C)O3)[C@H](C)O2)c2c(cc3c(c2O)C(=O)c2c(O)cccc2C3=O)[C@H]1C(=O)OC", "note": "[Aclarubicin hydrochloride]", "values": [{"measurement": "pH value", "setting": "[1]", "value": "5.0-6.5"}]}
{"compound": "CC(=O)C1=Cc2c(O)c3c(c(O)c2[C@@H](OC2CC(O)C(O)CO2)C1)C(=O)c1ccccc1C3=O", "note": "(some centres unmarked) [deaminated compound (3)]", "values": [{"measurement": "Ratio at which it may cause turbidity of the injection solution", "setting": "[5]", "value": "≥ 1", "unit": "%"}]}
